One test has as its system FL-geph. The test can be described thus: µSPOT peptide microarray binding assay with full-length geph.
In a further test the test system is gephE. Kind of test: µSPOT peptide microarray binding assay with recombinant gephE.
In the next test the test system is native geph. The test can be described thus: µSPOT peptide microarray binding assay with native geph from mouse brain lysate.
The mark [1] stands for this setting: µSPOT full positional scan of GlyRβ 15-mer DLRSNDFSIVGSLPR, intensity normalised to wild-type sequence (= 1).
[2] abbreviates: µSPOT full positional scan of GlyRβ 15-mer DLRSNDFSIVGSLPR, native geph, intensity normalised to wild-type sequence (= 1).
The mark [3] stands for this setting: µSPOT peptide microarray, GlyRβ full positional scan, intensity normalised to wild-type sequence DLRSNDFSIVGSLPR (=1).
Where [4] appears, read: µSPOT peptide microarray, GlyRβ full positional scan, recombinant gephE, intensity normalised to wild-type sequence DLRSNDFSIVGSLPR (=1).
The mark [5] stands for this setting: µSPOT peptide microarray, GlyRβ full positional scan, native geph from mouse brain lysate, intensity normalised to wild-type sequence DLRSNDFSIVGSLPR (=1).

34 sequences from PMC7753147, “High-throughput determination of protein affinities using unmodified peptide libraries in nanomolar scale” (iScience, 2020) can be followed below.

Protocol for native geph: Preparation of Mouse Tissue Lysates
Whole mouse brains were obtained from C57BL/6J mice at >4 weeks of age and 80 immediately flash frozen in liquid N2. Tissue of mRFP-gephyrin knock-in animals of 1 year of age (provided by Christian Specht, IBENS, Paris) was processed the same way. Before lysis, whole mouse brains were weighted and cut into four pieces along the coronal and sagittal axis. For preparation of one lysate, two diagonally opposite pieces were transferred into a 1.5 mL reaction tube (Sarsted). Lysis was carried out on ice in 400 µL RIPA lysis buffer (150 mM 85 NaCl, 50 mM Tris-HCl (pH=8), 1% Nonident P-40 substitute, 0.5% DOC, 0.1% SDS (all v/v)), to which Ethylenediaminetetraacetic acid (5 mM end concentration) and 1 mini tablet of ROCHE complete protease inhibitor per 10 mL was added immediately before use, by hand crushing the brain material with a hand pestle in a 1.5 mL reaction tube. Lysis was completed by 1 min sonification on ice with a Sartorius Labsonic M Sonificator at 20% amplitude with 90 care to avoid heating the suspensions. Finally, Lysates were centrifuged for 15 min at 17,200×g and 4 °C. The SN was subsequently collected, transferred to a new 1.5 mL reaction tube, flash frozen in liquid N2 and stored at -80 °C until use.
95 µSPOT slides were blocked by incubation with 2.5 mL 2% (w/v) IGG free bovine serum

In the case of “DLRSNDFSIVGSWPR [GlyRβ_Full_Positional_Scan_248]”, the “Fl-geph Binding Intensity [norm.]” value in the test on FL-geph (setting [1]) was 0.93 norm. Moreover, in the test with gephE (setting [1]), the “gephE Binding Intensity [norm.]” value is listed as 0.7 norm. Also, the “Native geph Binding Intensity [norm.]” value in the test on native geph (setting [2]) stood at 0.52 norm.
The like results for “DLRSNDFSIVGSYPR [GlyRβ_Full_Positional_Scan_249]” were, in that order, 0.87 norm, 0.99 norm and 1.23 norm.
The like results for “DLRSNDFSIVGTLPR [GlyRβ_Full_Positional_Scan_236]” were, in that order, 0.98 norm, 0.94 norm and 1.05 norm.
The like results for “DLRSNDFSIVGVLPR [GlyRβ_Full_Positional_Scan_226]” were, in that order, 1.01 norm, 0.69 norm and 0.74 norm.
Regarding “DLRSNDFSIVGWLPR [GlyRβ_Full_Positional_Scan_228]”, the “Fl-geph Binding Intensity [norm.]” value in the test with FL-geph (setting [1]) is 0.67 norm. For the same sequence, the “gephE Binding Intensity [norm.]” value in the test on gephE (setting [1]) was found to be 0.57 norm. Besides, the “Native geph Binding Intensity [norm.]” value in the test with native geph (setting [2]) was determined as 0.19 norm.
On to “DLRSNDFSIVGYLPR [GlyRβ_Full_Positional_Scan_229]”, for which, in the test with FL-geph (setting [1]), the “Fl-geph Binding Intensity [norm.]” value is 0.59 norm. Moreover, the “gephE Binding Intensity [norm.]” value in the test with gephE (setting [1]) is 0.53 norm. The “Native geph Binding Intensity [norm.]” value in the test with native geph (setting [2]) worked out at 0.31 norm.
The like results for “DLRSNDFSIVHSLPR [GlyRβ_Full_Positional_Scan_213, GlyR β 414-428 variant G424H]” were, in that order, 0.5 norm, 0.47 norm and 0.18 norm.
As to “DLRSNDFSIVISLPR [GlyRβ_Full_Positional_Scan_203, GlyR β 414-428 variant G424I]”, the “Fl-geph Binding Intensity [norm.]” value in the test with FL-geph (setting [3]) is 0.52 norm. The “gephE Binding Intensity [norm.]” value with gephE (setting [4]) amounted to 0.48 norm. Also, the “Native geph Binding Intensity [norm.]” value in the test with native geph (setting [5]) amounted to 0.29 norm.
For the sequence “DLRSNDFSIVKSLPR [GlyRβ_Full_Positional_Scan_214, GlyR β 414-428 variant G424K]”, in the test with FL-geph (setting [1]), the “Fl-geph Binding Intensity [norm.]” value came to 0.44 norm. The “gephE Binding Intensity [norm.]” value with gephE (setting [1]) turned out to be 0.5 norm. The “Native geph Binding Intensity [norm.]” value with native geph (setting [2]) stood at 0.17 norm.
On to “DLRSNDFSIVLSLPR [GlyRβ_Full_Positional_Scan_204, GlyR β 414-428 variant G424L]”, for which the “Fl-geph Binding Intensity [norm.]” value with FL-geph (setting [3]) worked out at 0.53 norm. Moreover, in the test with gephE (setting [4]), the “gephE Binding Intensity [norm.]” value is listed as 0.57 norm. Also, in the test with native geph (setting [5]), the “Native geph Binding Intensity [norm.]” value is recorded as 0.23 norm.
For the sequence “DLRSNDFSIVMSLPR [GlyRβ_Full_Positional_Scan_218, GlyR β 414-428 variant G424M]”, the “Fl-geph Binding Intensity [norm.]” value in the test with FL-geph (setting [1]) is 0.33 norm. Besides, in the test with gephE (setting [1]), the “gephE Binding Intensity [norm.]” value came out at 0.36 norm. Besides, the “Native geph Binding Intensity [norm.]” value in the test with native geph (setting [2]) is on record as 0.17 norm.
In the case of “DLRSNDFSIVNSLPR [GlyRβ_Full_Positional_Scan_219, GlyR β 414-428 variant G424N]”, the “Fl-geph Binding Intensity [norm.]” value with FL-geph (setting [1]) worked out at 0.41 norm. The “gephE Binding Intensity [norm.]” value in the test on gephE (setting [1]) is on record as 0.38 norm. Further, the “Native geph Binding Intensity [norm.]” value in the test with native geph (setting [2]) was 0.17 norm.
“DLRSNDFSIVPSLPR [GlyRβ_Full_Positional_Scan_205, GlyR β 414-428 variant G424P]”: in the test with FL-geph (setting [3]), the “Fl-geph Binding Intensity [norm.]” value was 0.5 norm. Moreover, the “gephE Binding Intensity [norm.]” value with gephE (setting [4]) is recorded as 0.41 norm. The “Native geph Binding Intensity [norm.]” value in the test with native geph (setting [5]) was 0.21 norm.
Consider “DLRSNDFSIVQSLPR [GlyRβ_Full_Positional_Scan_220, GlyR β 414-428 variant G424Q]”, for which the “Fl-geph Binding Intensity [norm.]” value with FL-geph (setting [1]) is 0.45 norm. Also, the “gephE Binding Intensity [norm.]” value with gephE (setting [1]) was 0.43 norm. The “Native geph Binding Intensity [norm.]” value in the test with native geph (setting [2]) is listed as 0.29 norm.
As to “DLRSNDFSIVRSLPR [GlyRβ_Full_Positional_Scan_212, GlyR β 414-428 variant G424R]”, the “Fl-geph Binding Intensity [norm.]” value with FL-geph (setting [1]) stood at 0.6 norm. The “gephE Binding Intensity [norm.]” value in the test with gephE (setting [1]) is 0.57 norm. The “Native geph Binding Intensity [norm.]” value with native geph (setting [2]) is on record as 0.17 norm.
The like results for “DLRSNDFSIVSSLPR [GlyRβ_Full_Positional_Scan_215, GlyR β 414-428 variant G424S]” were, in that order, 0.44 norm, 0.4 norm and 0.2 norm.
The like results for “DLRSNDFSIVTSLPR [GlyRβ_Full_Positional_Scan_216, GlyR β 414-428 variant G424T]” were, in that order, 0.47 norm, 0.49 norm and 0.28 norm.
As to “DLRSNDFSIVVSLPR [GlyRβ_Full_Positional_Scan_206, GlyR β 414-428 variant G424V]”, in the test with FL-geph (setting [3]), the “Fl-geph Binding Intensity [norm.]” value amounted to 0.42 norm. Moreover, in the test with gephE (setting [4]), the “gephE Binding Intensity [norm.]” value stood at 0.43 norm. Further, the “Native geph Binding Intensity [norm.]” value in the test on native geph (setting [5]) was 0.17 norm.
With “DLRSNDFSIVWSLPR [GlyRβ_Full_Positional_Scan_208, GlyR β 414-428 variant G424W]”, the “Fl-geph Binding Intensity [norm.]” value in the test with FL-geph (setting [3]) amounted to 0.35 norm. Moreover, in the test on gephE (setting [4]), the “gephE Binding Intensity [norm.]” value worked out at 0.32 norm. For the same sequence, the “Native geph Binding Intensity [norm.]” value in the test on native geph (setting [5]) was found to be 0.16 norm.
For “DLRSNDFSIVYSLPR [GlyRβ_Full_Positional_Scan_209, GlyR β 414-428 variant G424Y]”, the “Fl-geph Binding Intensity [norm.]” value in the test with FL-geph (setting [3]) turned out to be 0.48 norm. In addition, the “gephE Binding Intensity [norm.]” value in the test on gephE (setting [4]) amounted to 0.41 norm. Moreover, in the test with native geph (setting [5]), the “Native geph Binding Intensity [norm.]” value was determined as 0.2 norm.
As for “DLRSNDFSIWGSLPR [GlyRβ_Full_Positional_Scan_188, GlyR β 414-428 variant V423W]”, the “Fl-geph Binding Intensity [norm.]” value in the test with FL-geph (setting [3]) was found to be 0.62 norm. In the test with gephE (setting [4]), the “gephE Binding Intensity [norm.]” value is listed as 0.68 norm. Moreover, the “Native geph Binding Intensity [norm.]” value with native geph (setting [5]) worked out at 0.27 norm.
For the sequence “DLRSNDFSIYGSLPR [GlyRβ_Full_Positional_Scan_189, GlyR β 414-428 variant V423Y]”, the “Fl-geph Binding Intensity [norm.]” value in the test on FL-geph (setting [3]) came out at 0.84 norm. In addition, the “gephE Binding Intensity [norm.]” value with gephE (setting [4]) is 0.79 norm. Besides, the “Native geph Binding Intensity [norm.]” value in the test with native geph (setting [5]) came out at 0.34 norm.
For the sequence “DLRSNDFSKVGSLPR [GlyRβ_Full_Positional_Scan_174, GlyR β 414-428 variant I422K]”, in the test on FL-geph (setting [3]), the “Fl-geph Binding Intensity [norm.]” value is given as 0.58 norm. The “gephE Binding Intensity [norm.]” value in the test on gephE (setting [4]) is reported as 0.47 norm. Further, the “Native geph Binding Intensity [norm.]” value with native geph (setting [5]) worked out at 0.13 norm.
For the sequence “DLRSNDFSNVGSLPR [GlyRβ_Full_Positional_Scan_179, GlyR β 414-428 variant I422N]”, the “Fl-geph Binding Intensity [norm.]” value in the test on FL-geph (setting [3]) was 0.57 norm. In the test with gephE (setting [4]), the “gephE Binding Intensity [norm.]” value was found to be 0.6 norm. Moreover, the “Native geph Binding Intensity [norm.]” value in the test on native geph (setting [5]) amounted to 0.42 norm.
For “DLRSNDFSPVGSLPR [GlyRβ_Full_Positional_Scan_165, GlyR β 414-428 variant I422P]”, in the test with FL-geph (setting [3]), the “Fl-geph Binding Intensity [norm.]” value was found to be 0.97 norm. In addition, the “gephE Binding Intensity [norm.]” value in the test with gephE (setting [4]) is listed as 0.64 norm. For the same sequence, in the test with native geph (setting [5]), the “Native geph Binding Intensity [norm.]” value was determined as 0.48 norm.
On to “DLRSNDFSQVGSLPR [GlyRβ_Full_Positional_Scan_180, GlyR β 414-428 variant I422Q]”, for which the “Fl-geph Binding Intensity [norm.]” value with FL-geph (setting [3]) came to 0.53 norm. Also, the “gephE Binding Intensity [norm.]” value with gephE (setting [4]) came to 0.57 norm. Besides, the “Native geph Binding Intensity [norm.]” value in the test on native geph (setting [5]) amounted to 0.32 norm.
Consider “DLRSNDFSRVGSLPR [GlyRβ_Full_Positional_Scan_172, GlyR β 414-428 variant I422R]”, for which, in the test on FL-geph (setting [3]), the “Fl-geph Binding Intensity [norm.]” value was determined as 0.62 norm. Also, in the test on gephE (setting [4]), the “gephE Binding Intensity [norm.]” value amounted to 0.57 norm. In addition, the “Native geph Binding Intensity [norm.]” value in the test on native geph (setting [5]) was 0.16 norm.
The like results for “DLRSNDFSSVGSLPR [GlyRβ_Full_Positional_Scan_175, GlyR β 414-428 variant I422S]” were, in that order, 0.87 norm, 0.52 norm and 0.27 norm.
Consider “DLRSNDFSTVGSLPR [GlyRβ_Full_Positional_Scan_176, GlyR β 414-428 variant I422T]”, for which, in the test with FL-geph (setting [3]), the “Fl-geph Binding Intensity [norm.]” value was 0.95 norm. Further, the “gephE Binding Intensity [norm.]” value in the test with gephE (setting [4]) amounted to 0.53 norm. In the test on native geph (setting [5]), the “Native geph Binding Intensity [norm.]” value came to 0.31 norm.
Consider “DLRSNDFSWVGSLPR [GlyRβ_Full_Positional_Scan_168, GlyR β 414-428 variant I422W]”, for which, in the test with FL-geph (setting [3]), the “Fl-geph Binding Intensity [norm.]” value stood at 0.67 norm. Besides, the “gephE Binding Intensity [norm.]” value in the test on gephE (setting [4]) was determined as 0.59 norm. For the same sequence, in the test with native geph (setting [5]), the “Native geph Binding Intensity [norm.]” value turned out to be 0.2 norm.
As for “DLRSNDFSYVGSLPR [GlyRβ_Full_Positional_Scan_169, GlyR β 414-428 variant I422Y]”, in the test with FL-geph (setting [3]), the “Fl-geph Binding Intensity [norm.]” value came to 0.84 norm. In addition, the “gephE Binding Intensity [norm.]” value in the test with gephE (setting [4]) turned out to be 0.69 norm. The “Native geph Binding Intensity [norm.]” value with native geph (setting [5]) was found to be 0.48 norm.
As for “DLRSNDFVIVGSLPR [GlyRβ_Full_Positional_Scan_146, GlyR β 414-428 variant S421V]”, the “Fl-geph Binding Intensity [norm.]” value in the test on FL-geph (setting [3]) is on record as 0.61 norm. Also, the “gephE Binding Intensity [norm.]” value in the test on gephE (setting [4]) was found to be 0.56 norm. Further, the “Native geph Binding Intensity [norm.]” value in the test with native geph (setting [5]) is 0.23 norm.
For the sequence “DLRSNDFWIVGSLPR [GlyRβ_Full_Positional_Scan_148, GlyR β 414-428 variant S421W]”, the “Fl-geph Binding Intensity [norm.]” value in the test with FL-geph (setting [3]) was determined as 0.79 norm. Besides, the “gephE Binding Intensity [norm.]” value in the test with gephE (setting [4]) is recorded as 0.73 norm. The “Native geph Binding Intensity [norm.]” value in the test with native geph (setting [5]) was found to be 0.24 norm.
The like results for “DLRSNDFYIVGSLPR [GlyRβ_Full_Positional_Scan_149, GlyR β 414-428 variant S421Y]” were, in that order, 0.85 norm, 0.7 norm and 0.27 norm.
